The text below walks through data of patent publication US9802942B2, “Substituted 4-methyl-pyrrolo[1,2-A]pyrimidine-8-carboxamide compounds and uses thereof for modulating glucocerebrosidase activity” (Northwestern University, priority 2015, dated 2017).

The target in assay [1] is T1, glucocerebrosidase (GCase), recombinant wt. enzyme velaglucerase alfa (Homo sapiens, UniProt P04062).
T1 construct: purchased Shire Human Genetic Therapies, Inc. Vpriv
T1 sequence (P04062 40-536): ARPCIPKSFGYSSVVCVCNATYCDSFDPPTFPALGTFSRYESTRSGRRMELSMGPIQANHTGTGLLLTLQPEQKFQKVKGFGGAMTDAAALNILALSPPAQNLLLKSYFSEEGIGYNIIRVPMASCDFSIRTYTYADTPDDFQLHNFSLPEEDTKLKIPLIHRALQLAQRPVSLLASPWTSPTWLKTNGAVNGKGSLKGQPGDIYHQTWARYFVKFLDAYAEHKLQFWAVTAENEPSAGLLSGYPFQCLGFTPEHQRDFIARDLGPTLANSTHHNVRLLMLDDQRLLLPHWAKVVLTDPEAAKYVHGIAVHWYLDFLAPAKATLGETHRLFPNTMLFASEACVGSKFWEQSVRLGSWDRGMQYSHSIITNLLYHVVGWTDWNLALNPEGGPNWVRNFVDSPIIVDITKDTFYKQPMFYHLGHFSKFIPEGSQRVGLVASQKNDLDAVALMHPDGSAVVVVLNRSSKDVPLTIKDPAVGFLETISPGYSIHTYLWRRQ
Description: Glucocerebrosidase activity assay with blue substrate (4MU-Glc). The assay is classed as biochemical. Particulars: 4MU-Glc substrate enzyme activity assay. The protocol: (§1) The compounds in DMSO solution 0.5 μL/well were transferred to a black 96-well plate (the final titration was 24 nM to 50 μM, 12 concentrations, 2 times dilution). 33.5 μL enzyme solution (7.5 nM final concentration) was transferred to the wells. After 5 min of incubation at room temperature, the enzyme reaction was initiated by the addition of 33 μL/well blue substrate or 66.5 μL/well red substrate. Final concentrations of the blue substrate (4MU-Glc) and red substrate (Res-Glc) were 1.5 mM and 30 μM, respectively. The red substrate reaction was measured in the Biotek Synergy H1 multi-mode plate reader with Ex=573 nm and Em=610 nm at 37° C. every 20 sec for 30 min. The blue substrate reaction was terminated by the addition of 33 μL/well stop solution (1 M NaOH and 1 M glycine mixture, pH 10) after 30 min of incubation at 37° C. The fluorescence was then measured in the plate reader at Ex=365 nm and Em=440 nm.
The recombinant wt. enzyme velaglucerase alfa (Vpriv®, Shire Human Genetic Therapies, Inc.) was obtained from residual solution after clinical infusions. The GCase activity assay buffer was composed of 50 mM citric acid, 176 mM K2HPO4, and 0.01% Tween-20 at pH 5.9. A solution of 1 M sodium hydroxide and 1 M glycine was used as the stop solution for the 4MU-β-glc substrate assay.
The compounds in DMSO solution 0.5 μL/well was transferred to a black 96-well plate (the final titration was 24 nM to 50 μM, 12 concentrations). 33.5 μL enzyme solution (7.5 nM final concentration) was transferred to the wells. After 5 min of incubation at room temperature, the enzyme reaction was initiated by the addition of 33 μL/well 4MU-Glc substrate or 66.5 μL/well red substrate. Final concentrations of the 4MU-Glc substrate and Res-Glc substrate were 1.5 mM and 30 μM, respectively. The red substrate reaction was measured in the Biotek Synergy H1 multi-mode plate reader with Ex=573 nm and Em=610 nm at 37° C. in every 20 seconds for 30 min. The 4MU-Glc substrate reaction was terminated by the addition of 33 μL/well stop solution (1 M NaOH and 1 M glycine mixture, pH 10) after 30 min of incubation at 37° C. The fluorescence was then measured in the plate reader with Ex=365 nm and Em=440 nm.

Assay [2] concerns the target T1, glucocerebrosidase (GCase), recombinant wt. enzyme velaglucerase alfa. Description: Glucocerebrosidase activity assay with red substrate (Res-β-glc). Type of assay: biochemical. Particulars: at 50 μM. The protocol: as §1, with “nm. […]” for “nm.”
The compounds in DMSO solution 0.5 μL/well was transferred to a black 96-well plate (the final titration was 24 nM to 50 μM, 12 concentrations). […] The red substrate reaction was measured in the Biotek Synergy H1 multi-mode plate reader with Ex=573 nm and Em=610 nm at 37° C. in every 20 seconds for 30 min. […] The fluorescence was then measured in the plate reader with Ex=365 nm and Em=440 nm.

The target in the next assay is T2, GCase (Homo sapiens, UniProt P04062).
T2 construct: purchased Shire Human Genetic Therapies, Inc. Vpriv
T2 sequence (P04062 40-536): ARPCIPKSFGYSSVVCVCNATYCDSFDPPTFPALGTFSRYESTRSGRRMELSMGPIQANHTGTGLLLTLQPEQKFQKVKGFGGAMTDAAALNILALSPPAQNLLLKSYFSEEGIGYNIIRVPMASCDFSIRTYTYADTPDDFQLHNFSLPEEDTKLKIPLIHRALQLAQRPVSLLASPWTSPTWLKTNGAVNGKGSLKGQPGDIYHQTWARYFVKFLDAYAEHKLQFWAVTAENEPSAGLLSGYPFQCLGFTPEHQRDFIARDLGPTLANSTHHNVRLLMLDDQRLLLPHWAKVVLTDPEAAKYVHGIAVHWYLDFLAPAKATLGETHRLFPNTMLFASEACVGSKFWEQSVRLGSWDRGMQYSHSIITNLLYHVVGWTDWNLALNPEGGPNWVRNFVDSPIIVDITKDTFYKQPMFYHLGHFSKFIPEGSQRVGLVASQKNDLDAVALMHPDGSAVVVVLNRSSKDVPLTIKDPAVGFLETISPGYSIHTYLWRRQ
Description: Binding affinity test by FP assay (competition with probe 3). As to conditions: in words; 19.5 nM to 10 μM. The protocol: The enzyme in GCase enzyme activity buffer (25 μL/well) was added to a 384-well black plate. The fluorescent probe 3 (25 nL/well, 50 nM final concentration) was transferred to a 384-well black plate using a Labcyte Echo 550 Liquid Handler system. Compounds in DMSO stock solution (50 nL) were transferred to the plate. The plate was shaken at room temperature in dark for 20 min. The final concentration was 19.5 nM to […], 10 concentrations, 2 times dilution. The fluorescence polarization was measured in a Molecular Devices Analyst GT with Ex=535 nm and Em=580 nm, G Factor=1.05.
The enzyme in GCase enzyme activity buffer (25 μL/well) was added to a 384-wells black plate, The fluorescent probe 3 (25 nL/well, 50 nM final concentration) was transferred to a 384-wells black plate by using Labcyte Echo 550 Liquid Handler system. Compounds 1, and 2 in DMSO stock solution (50 nL) (the final titration was 19.5 nM to 10 μM, 10 concentrations) were transferred to the plate. The plate was shook at room temperature in dark for 20 min. The fluorescence polarization was measured in Molecular Devices Analyst GT with Ex=535 nm and Em=580 nm, G Factor=1.05.

The next assay deals with T3, wt. GCase (Homo sapiens, UniProt P04062).
T3 construct: purchased Shire Human Genetic Therapies, Inc. Vpriv
T3 sequence (P04062 40-536): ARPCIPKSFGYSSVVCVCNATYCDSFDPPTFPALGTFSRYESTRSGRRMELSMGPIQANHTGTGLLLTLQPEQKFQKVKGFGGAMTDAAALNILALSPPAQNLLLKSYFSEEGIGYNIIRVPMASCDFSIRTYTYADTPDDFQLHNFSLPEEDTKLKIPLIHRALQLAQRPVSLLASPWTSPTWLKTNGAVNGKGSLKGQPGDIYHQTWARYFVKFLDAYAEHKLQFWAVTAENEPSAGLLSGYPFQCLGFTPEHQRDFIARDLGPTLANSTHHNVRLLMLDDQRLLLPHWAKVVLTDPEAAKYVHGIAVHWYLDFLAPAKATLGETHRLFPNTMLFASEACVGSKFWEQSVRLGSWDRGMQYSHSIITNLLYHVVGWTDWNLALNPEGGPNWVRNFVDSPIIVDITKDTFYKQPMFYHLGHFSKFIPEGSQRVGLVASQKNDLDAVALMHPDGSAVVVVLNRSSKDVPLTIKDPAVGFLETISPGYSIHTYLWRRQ
Description: Saposin C activation assay with 4MU-Glc substrate, wt. enzyme. Type of assay: biochemical. As to conditions: pH 4.7. The protocol: (§2) Saposin C (0.5 μL/well) was added to a black 96-well plate (the final titration was 1.72 nM to 1.76 μM, 12 concentrations). The compound 4 activated enzyme and wt. enzyme (33.5 μL/well, 7.5 nM final concentration) in assay buffer (50 mM Citric acid, 176 mM K2HPO4, 0.01% tween-20, 0.01% (g/mL) phosphatidylserine, pH 4.7) was added to the wells, respectively. After 5 min of incubation at room temperature, the enzyme reaction was initiated by the addition of 33 μL/well 4MU-Glc substrate. Final concentrations of the 4MU-Glc substrate was 1.5 mM. The reaction was terminated by the addition of 33 μL/well stop solution (1 M NaOH and 1 M glycine mixture, pH 10) after 30 min of incubation at 37° C. The fluorescence was then measured in the plate reader with Ex=365 nm and Em=440 nm.

The target in the next assay is T4, covalent activated GCase (Homo sapiens, UniProt P04062).
T4 construct: purchased Shire Human Genetic Therapies, Inc. Vpriv
T4 sequence (P04062 40-536): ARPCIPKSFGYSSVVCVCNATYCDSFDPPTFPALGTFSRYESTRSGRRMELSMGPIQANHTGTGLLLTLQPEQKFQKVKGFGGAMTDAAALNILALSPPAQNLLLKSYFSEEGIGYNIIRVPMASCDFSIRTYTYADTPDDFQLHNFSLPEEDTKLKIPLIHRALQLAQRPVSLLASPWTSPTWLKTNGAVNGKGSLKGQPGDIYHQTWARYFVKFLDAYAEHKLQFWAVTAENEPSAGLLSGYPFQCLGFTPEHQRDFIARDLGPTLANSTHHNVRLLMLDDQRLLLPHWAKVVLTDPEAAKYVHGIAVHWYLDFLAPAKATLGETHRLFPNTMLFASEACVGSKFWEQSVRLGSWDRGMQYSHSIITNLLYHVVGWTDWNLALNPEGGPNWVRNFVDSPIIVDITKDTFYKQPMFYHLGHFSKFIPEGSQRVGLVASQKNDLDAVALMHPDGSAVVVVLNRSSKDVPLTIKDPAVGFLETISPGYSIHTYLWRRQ
Description: Saposin C activation assay with 4MU-Glc substrate, probe 4 pre-activated enzyme. The assay is classed as biochemical. As to conditions: pH 4.7. The protocol:
as §2

Regarding `Cc1cc(C)n2ccc(C(=O)Nc3ccc(-c4cn(CCOCCOCCN)nn4)cc3)c2n1` [No. 3, N-(4-(1-(2-(2-(2-aminoethoxy)ethoxy)ethyl)-1H-1,2,3-triazol-4-yl)phenyl)-2,4-dimethylpyrrolo[1,2-a]pyrimidine-8-carboxamide], the “maximum activity / activation activity” value in assay [1] is recorded as “around 14 folds”. For the same molecule, the AC50 in assay [1] (read-out: AC50) was found to be 6310 nM. In assay [2], the “activation of Res-β-glc substrate hydrolysis” value was 10 folds. At GCase, the “activity in FP competition with probe 3” value is listed as “much higher activity”.

B1: Saposin C: a natural co-factor of GCase (protein, UniProt P07602 311-390, looked up)
Saposin-C: SDVYCEVCEFLVKEVTKLIDNNKTEKEILDAFDKMCSKLPKSLSEECQEVVDTYGSSILSILLEEVSPELVCSMLHLCSG
modifications: Saposin-C
notes: a natural co-factor of GCase
As for B1, the AC50 with wt. GCase was 100 nM; with covalent activated GCase, 71 nM.

Broadly, the AC50 is the concentration giving half of the maximal activity seen.
